{"source": "patent US20150290160A1", "about": "“Spermidine/Spermine N1-Acetyltransferase Substrates As Anti-Cancer Drug Compounds” (BIOMARK TECHNOLOGIES INC., priority 2012, published 2015)", "key": {"[1]": {"tested_on": "SSAT non-expressing cell lines (U2-OS and HeLa)", "assay": "Percent confluency during incubation with spermidine, SSAT non-expressing cell lines", "type": "cell-based, human", "conditions": "spermidine from 22 μM to 550 μM, compared among U2-OS, Malme-3M, PC-3, HEK293"}, "[2]": {"tested_on": "SSAT over-expressing cell lines (Malme-M3 and PC-3)", "assay": "Percent confluency during incubation with spermidine, SSAT over-expressing cell lines", "type": "cell-based, human", "conditions": "spermidine from 22 μM to 550 μM; compared among U2-OS, HeLa, Malme-3M, PC-3, HEK293"}, "[3]": {"tested_on": "human cancer cell lines (A549, H322, NCI-H23, MCF-7, T-47D, BT-549, LNCaP, PC-3, Du-145, U2-OS)", "assay": "MTT cytotoxicity assay, across all cell lines evaluated", "type": "cell-based", "conditions": "72 h, across all the cell lines evaluated, three day incubation, read-out: IC50 (cytotoxicity), range across cell lines", "description": "Three cell lines from each of lung, breast and prostate cancers have been selected based on literature SSAT expression data and used for potential cytotoxicity screening in the MTT assay. The SSAT non-expressing human osteosarcoma cell line U2-OS was used as the negative control cell line."}, "[4]": {"tested_on": "T-47D", "assay": "MTT cytotoxicity assay, T-47D", "method": "(§1) Each human cancer cell line was incubated with each of the four monoamine test drugs at a range of testing concentrations. Cytotoxicity expressed as half maximal inhibitory concentration or IC50 was determined based on a (dimethyl-2-thiazolyl)-2,5-diphenyl-2H-tetrazolium bromide or MTT assay. In parallel, the expression levels of SSAT in these cell lines were measured using a RT-qPCR assay.\n(§2) Cells of the ten cell lines were harvested from their established adherent cultures with trypsin EDTA, pelleted by centrifugation, and resuspended in the appropriate medium to yield a suspension of cells for each cell line. […]\n(§3) After three days of incubation with substrates, an aliquot of 5 mg/mL MTT was added to each well and then incubated for 1 to 3 hours. […] An aliquot from each well was measured for absorbance at 550 nm or 555 nm on a 96-well flat bottom plate with a microplate reader and DMSO for background absorbance correction.\n(§4) Cytotoxicity was determined based on treating each cell line with each of the test drugs over a range of concentrations. Following a three day incubation period cytotoxicity was measured by an MTT assay. IC50 values were deduced based on plots of cytotoxicity level expressed as percentage inhibition over the testing concentrations as shown in FIGS. 5 to 14. […]"}, "[5]": {"tested_on": "NCI-H23 (lung cancer)", "assay": "MTT cytotoxicity assay, NCI-H23", "type": "cell-based", "conditions": "Homo sapiens, 72 h, NCI-H23, three day incubation", "method": "as §1, §2, §3, §4"}, "[6]": {"tested_on": "LNCaP", "assay": "MTT cytotoxicity assay, LNCaP", "method": "as §1, §2, §3, §4"}, "[7]": {"tested_on": "breast cancer cell line BT-549", "assay": "cells", "conditions": "Homo sapiens, BT-549, 72 h, read-out: IC50 (cytotoxicity)", "method": "as §1, §2, §3, §4"}, "[8]": {"tested_on": "U2-OS osteosarcoma cell line (negative control, SSAT non-expressing)", "assay": "MTT cytotoxicity assay, U2-OS", "type": "cell-based, human", "conditions": "for IC50 values (in words): does not express SSAT", "method": "as §1\nCells of the ten cell lines were harvested from their established adherent cultures with trypsin EDTA, pelleted by centrifugation, and resuspended in the appropriate medium to yield a suspension of cells for each cell line.\nEach of the monoamine test drugs (amantadine, rimantadine, dopamine and L-DOPA) and the positive control (spermidine) was accurately weighed, dissolved and further diluted with sterile water into a series of solutions at 100× of their target incubation concentrations. The target incubation concentrations for amantadine, rimantadine, and dopamine were 0.03, 0.1, 0.3, 1, 3, 10, 30, 100, 300 and 1000 μM. The target incubation concentrations for L-DOPA and the positive control, spermidine, were 0.1, 0.3, 1, 3, 10, 30, 100, 300 and 1000 μM.\nIncubation was performed in triplicate at each drug concentration for each cell line tested. […]\nas §3\nCytotoxicity was determined based on treating each cell line with each of the test drugs over a range of concentrations. Following a three day incubation period cytotoxicity was measured by an MTT assay. IC50 values were deduced based on plots of cytotoxicity level expressed as percentage inhibition over the testing concentrations as shown in FIGS. 5 to 14. In parallel to each drug treatment, each cell line was also treated with spermidine as a positive control and the IC50 value for spermidine was determined for comparison."}}, "note": "Like-named read-outs stand apart in the source and are kept apart here.", "data": [{"smiles": "NCCCCNCCCN", "note": "[spermidine, Spermidine]", "values": [{"measurement": "relative cell viability, expressed as percent confluency", "setting": "[1]", "value": "highest"}, {"measurement": "relative cell viability, expressed as percent confluency", "setting": "[2]", "value": "lowest"}, {"measurement": "IC50", "setting": "[3]", "value": "3.72 to 32.7", "unit": "µM"}]}, {"smiles": "NC12CC3CC(CC(C3)C1)C2", "note": "[amantadine, Amantadine]", "values": [{"measurement": "cytotoxicity (in words)", "setting": "[4]; T-47D, over-expresses SSAT (>2 fold change)", "value": "high cytotoxicity"}, {"measurement": "IC50", "setting": "[5]", "value": 1600, "unit": "µM"}, {"measurement": "cytotoxicity (in words)", "setting": "[6]; LNCaP, over-expresses SSAT (>5-fold change)", "value": "high cytotoxicity"}, {"measurement": "IC50", "setting": "[7]", "value": 1160, "unit": "µM"}]}, {"smiles": "CC(N)C12CC3CC(CC(C3)C1)C2", "note": "(stereo not shown) [rimantadine, Rimantadine]", "values": [{"measurement": "cytotoxicity (in words)", "setting": "[4]", "value": "high cytotoxicity"}, {"measurement": "cytotoxicity (in words)", "setting": "[6]", "value": "high cytotoxicity"}]}, {"smiles": "NCCc1ccc(O)c(O)c1", "note": "[dopamine, Dopamine]", "values": [{"measurement": "IC50", "setting": "[8]; Homo sapiens, U2OS, 72 h, three day incubation, MTT", "value": 34.1, "unit": "µM"}, {"measurement": "IC50 values (in words)", "setting": "[8]", "value": "low IC50 values"}, {"measurement": "IC50", "setting": "[7]", "value": 52, "unit": "µM"}]}, {"smiles": "N[C@@H](Cc1ccc(O)c(O)c1)C(=O)O", "note": "[L-DOPA]", "values": [{"measurement": "IC50 values (in words)", "setting": "[8]", "value": "low IC50 values"}]}]}
